Measured values taken from patent US6630570B1, “Short-chain peptide-dye conjugates as contrast media for optical diagnosis” (priority 1999, dated 2003).
Entries after “also recorded” stand apart in the source; their conditions may differ. No end group written: not given here.

What was measured:
HT29-tumor = experiment: In-vivo fluorescence imaging in tumor-carrying nude mice, HT29 tumor; details: 0.1 μmol/kg intravenously, one hour after administration
Source text: The imaging properties of the compounds according to the invention were studied in vivo after injection into tumor-carrying nude mice. […] The fluorescence of the substances was excited by irradiation of animals with near-infrared light of wavelength 640 nm (indodicarbocyanines) or 740 nm (indotricarbocyanines), which was produced with an Nd:YAG laser. The fluorescence radiation was detected at a wavelength of >700 nm or >800 nm by an intensified CCD-camera, and the fluorescence images were stored digitally.

RIN38-VIP1-cells = experiment: Cell imaging by fluorescence microscopy, RIN38-VIP1 cells; type: cell-based, rat; details: 10 μM
Description: (§1) The binding and imaging of the compounds according to the invention were studied in vitro in human tumor cells, and the receptors for vaso-active intestinal peptide and/or somatostatin and/or neurotensin were expressed. To this end, 5×10^5 tumor cells were incubated in 1.5 ml of medium, which contained the test substance. Different concentrations of the substances (10 nM-10 μM) were used, and the incubation period varied (1 minute-24 hours). After the incubation, the cells were set, and microscopic preparations were produced. The evaluation was carried out on a Zeiss Axiovert 135-fluorescence microscope, which was equipped with a Cy7-(Exciter HQ 710/70 nm, emitter 810/90 nm, beam splitter 750 nm LP), Cy5-(exciter 575-625 nm, emitter 660-710 nm BP, beam splitter 645 nm) and Cy3-filter set (exciter 546/12 nm, emitter 590 nm LP, beam splitter 580 nm). From all preparations, white light and fluorescence images were recorded with a CCD-camera (Visitron RTE/CCD-576) and digitally stored.

HT29 cells = experiment: Cell imaging by fluorescence microscopy, HT29 cells; type: cell-based, human; details: 10 μM, 30 minutes of incubation, Cy7-filter set
Description: as §1

Question: Which “increase in fluorescence intensity in the tumor relative to the contralateral flank” value (HT29-tumor; HT29 tumor in right rear flank) does the source give for “(ξ-Amino-indotricarbocyanine)-Lys^25-VIP (14-25)-conjugate (RKQMAVKKYLNK(indotricarbocyanine)) [conjugate 24]” here?
Answer: ~1.5 fold

Question: What about the “fluorescence outside the tumor (remainder of the body, kidneys)” value (HT29-tumor; HT29 tumor mouse) of the same substance?
Answer: increased fluorescence signal in the kidneys

Question: What about the “fluorescence image of the cells (pattern, correlation with white light image)” value (RIN38-VIP1-cells; Cy7-filter set) of the same substance?
Answer: homogeneous, intracellular near-nucleus fluorescence

Question: With “Indocarbocyanine-VIP (1-28)-conjugate (HSDAVFTDNYTRLRKQMAVKKYLNSILN; ends and bridges not checked; also: indocarbocyanine conjugate, position not given here) [conjugate 14]” as the substance, how does the “fluorescence image of the cells (pattern)” value (RIN38-VIP1-cells; Cy3-filter set) read?
Answer: intracellular fluorescence areas with a vesicular pattern in the membrane area of the cell

Question: How did the “fluorescence image of the cells (pattern, correlation with white light image)” value (HT29 cells) turn out when “Indotricarbocyanine-D-VIP (14-24)-conjugate (RKQMAVKKYLN; not fully specified; also: indotricarbocyanine dye conjugate, attachment site not given here) [conjugate 25]” was run?
Answer: Fluorescence dispersed homogeneously over the cells, good correlation with the white light image

Question: “Indotricarbocyanine-VIP (1-28)-conjugate (HSDAVFTDNYTRLRKQMAVKKYLNSILN; ends and bridges not checked; also: indotricarbocyanine conjugate, position not given here) [conjugate 16]” was tested. Which “fluorescence image of the cells (pattern, correlation with white light image)” value (HT29 cells) did it give?
Answer: largely homogeneous fluorescence dispersed over the cells; also recorded: areas of increased signals were visible, which can be associated with vesicular compartments
